Like-named read-outs stand apart in the source and are kept apart here.
Key:
[1] = tested on: mushroom-derived tyrosinase; details: cited from earlier work
[2] = Maintenance on mouse skin samples (residual rate by HPLC); format: in vitro ADME; details: for Maintenance 19 hours after starting incubation: 0.5 g and 2.0 g mouse skin; for Maintenance 19 hours after starting incubation / Residual rate: 0.037M, pH 7.0, 37° C.; for Residual rate: 0.5 g of the skin sample, 40 hours
Procedure: The back skin was depilated and peeled off after sacrificing mice by cervical dislocation at 24 weeks of age.
Each sample was tested in triplicate (n=3) in all of the 4 groups, and mean residual rates were calculated.
HPLC was conducted under the following conditions:
Solvent: methanol-water (20:80, v/v, adjusted to pH 2.5 using phosphoric acid)

[3] = Maintenance in mouse skin extract fluid (residual rate by HPLC); format: in vitro ADME; details: skin extract fluid 1:1 with 0.1M solution, pH 7.0, 37° C.
Procedure: The skin samples obtained in Evaluation example 5 were weighed, and 2.6 g was added to sodium citrate-phosphate buffer solution (5.2 ml, pH 7.0) and homogenized. The homogenate obtained was used as skin extract fluid.
Each sample was tested in triplicate (n=3) in both groups, and mean residual rates were calculated.
HPLC was conducted under the conditions used in Evaluation example 5.

[4] = Stability (decomposition rate) in acidic, neutral and alkaline aqueous solutions; format: physicochemical
[5] = reported; cited from earlier work
[6] = pH 5.5, aqueous solution, 0.045M, 37° C.
[7] = pH 6.5, aqueous solution, 0.045M, 37° C.
[8] = pH 7.5, aqueous solution, 0.045M, 37° C.

| SMILES | Effect on mushroom-derived tyrosinase activity ([1]; Tokkaihei No. 5-932) | Inhibition of mushroom-derived tyrosinase ([1]; Tokkaihei No. 6-153976) | Tyrosinase inhibiting activity ([1]; mushroom-derived tyrosinase, Biochem. Biotech. Biochem., 59, 143 (1995)) | Maintenance 19 hours after starting incubation [2] | Residual rate [2] [%] | Residual rate, times larger than that of β-arbutin ([2]; 2.0 g of the skin sample, 40 hours after incubation) | Maintenance 4 hours after starting incubation [3] | Residual rate compared with the β-arbutin group ([3]; 20 hours) | half-life at 0.045 M ([4]; buffer, pH 6.5) [h] | half-life at 0.045 M ([4]; buffer, pH 7.5) [h] | Decomposition rate constant [4, 6] | Decomposition rate constant [4, 7] | Decomposition rate constant [4, 8] | Cytotoxicity, times more cytotoxic than β-arbutin [5] | half-life at 0.045 M ([4]; aqueous solution, pH 5.5, over pH 5.5 to 7.5, 37° C., read-out: Half-life in alkaline and acidic regions) [h] | half-life at 0.045 M ([4]; aqueous solution, pH 5.5, pH 5.5, aqueous solution, 0.045M, 37° C., α-arbutin determined after 69 hrs, read-out: Half-life (converted)) [h] | half-life at 0.045 M ([4]; aqueous solution, pH 6.5, pH 6.5, aqueous solution, 0.045M, 37° C., read-out: Half-life (converted)) [h] | half-life at 0.045 M ([4]; aqueous solution, pH 7.5, pH 7.5, aqueous solution, 0.045M, 37° C., read-out: Half-life (converted)) [h] |
| --- | --- | --- | --- | --- | --- | --- | --- | --- | --- | --- | --- | --- | --- | --- | --- | --- | --- | --- |
| OCC1OC(Oc2ccc(O)cc2)C(O)C(O)C1O [α-Arbutin, hydroquinone-α-D-glucopyranoside] | promotes, rather than inhibits | effective in inhibiting mushroom-derived tyrosinase | does not show tyrosinase inhibiting activity | remained virtually intact | 87.5 | about 10 times | remained virtually intact | more than twice higher | 53.3 | 31.5 | 0 | 0.013 | 0.022 | – | – | – | – | – |
| Oc1ccc(O)cc1 [Hydroquinone, hydroquinone] | – | – | – | – | – | – | – | – | – | – | 0.064 | 0.903 | 1.117 | about 400 times | 0.6 to 10.8 | 10.8 | 0.8 | 0.6 |
| OC[C@H]1O[C@@H](Oc2ccc(O)cc2)[C@H](O)[C@@H](O)[C@@H]1O [β-Arbutin, hydroquinone-β-glucopyranoside, reference compound] | – | – | – | remained virtually intact | 0 | – | remained virtually intact | – | – | – | – | – | – | – | – | – | – | – |

— patent US20030143251A1, “Skin preparations for external use” (priority 2000, published 2003)
